Experimental findings from US20240117305A1, “THREE-DIMENSIONAL PRINTABLE BIOCOMPATIBLE PHOTOPOLYMERIZABLE INK WITH SPATIALLY CONTROLLED DUAL PROTEIN MOTIFS FOR CO-CULTURE FUNCTIONALITY” (Rowan University, priority 2022, published 2024) are described below.

Assay [1] has as its system hCMEC/D3 endothelial cells. Nature of the assay: Endothelial spreading and cell coverage in peptide-lined DLP-printed channels. Type of assay: cell-based. As to conditions: for Cell spreading and vessel coverage over time: 650 μm channels in photoink formulation no. 1, 5-day static culture, images on days 1, 3, 5; for Percent cell coverage within the vessel versus control / other motifs: 650 μm channels in photoink formulation no. 1, static culture, day 5, peptide clicked to channel wall; for Microenvironment for vessel coverage and development of barrier function: overall statement covering coverage and ZO-1 results in hCMEC/D3 endothelial cells. As for the experimental part:
Radicalized driven thiol-ene reaction schemes were utilized for functionalizing biomaterials. Several thiolated peptide cell binding motifs were functionalized to the walls of the printed geometry. Fluorescent labeled peptides were first synthesized via peptide synthesizer. […] Lyophilized RFP and GFP were both brought to room temperature and diluted to 10 mg/mL in 1×PBS. The bifurcation geometry print included RFP peptide in the bulk solution at 1:1000, while 300 μL of GFP was flowed into the channel at 10 μg/mL and hit with […] for 180 seconds. Process was repeated in the same manner for channel functionalization of the ‘RU’ geometry. Similarly, HAVDI(HAVDIGGGC), derived from N-Cadherein and RGD(GCGYGRGDSPG), derived from multiple ECM proteins, were synthesized and purchased from Genscript. IKVAV(GCGGGIKVAVG), a laminin derived motif, was fabricated using a peptide synthesizer. 5 mg/mL Irgacure 12959 was diluted to 0.5 mg/mL in PBS and thiolated peptide was added to a final concentration of 5 mM. 50 μL of peptide solution was injected into the channel and 10 mW/cm^2 was radiated onto surface of gel for 60 seconds. This process was repeated after inverting the gel to assure full coverage of the peptide onto the surface of the channel. Gels were then washed out 2× for 30 minutes in PBS to remove any unbound peptide.
(§1) P23 hCMEC/D3 endothelial cells (with and without transfection with RFP-LifeAct) were cultured until 90% confluent, trypsinized, and suspended at a concentration of 50M/mL for hydrogel cell seeding. Hydrogels were seeded with 22 μL of 12.5 M/mL and placed face up at the bottom of six well plate with 1 mL of EGM-2 incubated at 37° C./5% CO2. The cell seeding technique included 90° rotations every 30 minutes with additional seeding every hour for 4 hours. Following initial seeding, 8.8 μL of 12.5 M/mL HCMEC/D3 were injected into the bifurcation geometry for vessel coating. After 4 hours, hydrogels were kept in static culture for 4-5 days in EGM-2.
(§2) In order to quantify cell spreading, a z-projection was used with an arbitrary ROI to quantify the percentage of the area covered by cells. Three different ROI's were analyzed to provide an average and standard deviation. ZO-1 intensity was quantified in both static and perfused culture at different locations within the branched network. The image intensity along approximately 70-μm lines across the image plane were plotted to quantify ZO-1 localization to cell-cell junctions. […] ImageJ was used for all image processing and analysis.
Imaging was performed on a Nikon Eclipse Ti Confocal Microscope to assess cell spreading, morphology, and proliferation in 3D overtime within these microvessels. Images were taken on days 1, 3, and 5 following cell seeding.
(§3) A two-factor ANOVA was calculated to test for significance in the two variables of time and peptide coating in the cell spreading assay. In order to test for significance in the ZO-1 localization experiments, a one-factor ANOVA was calculated for each peptide condition tested.

Assay [2] concerns ZO-1 localization in hCMEC/D3 cells. Nature of the assay: ZO-1 localization to cell-cell junctions (tight junction integrity) in peptide-lined vessels. The class given is cell-based. The settings on record: for ZO-1 staining localization to cell-cell junctions (images): photoink formulation no. 1, static conditions for five days; for Root mean square ZO-1 intensity quantification (barrier formation): photoink formulation no. 1, static culture day 5, p<0.05. As for the experimental part: as §1
Vessels cultured in static conditions for four days were hooked up to pressure driven flow using an Arduino-controlled peristaltic pump. Gels were ported inside a perfusion chamber with 20-gauge PTFE catheter tips connected to luer locks with tygon tubing (McMaster Carr). Vessels were connected in parallel through a dampener with EGM-2 for 24 hours at a flow rate of ˜5 mL/min or 44.4 dyne/cm^2 shear stress in the branches and 1.68 dyne/cm^2 in the region adjacent to the bifurcation.
Following static and/or flow culture within the vessels, hydrogels were washed 3× in PBS and placed in 4% paraformaldehyde for 20 minutes. Gels were washed in PBS and a primary monoclonal antibody for zonula-occluden-1 (ZO-1) (Cell Signaling Technologies) was added at 1:250 in PBS and incubated at 4° C. for 48 hours. Gels were then washed for 10 minutes 3× in PBS on the rocker. Far red-labeled ZO-1 secondary antibody (Cell Signaling Technologies) was diluted 1:250 in PBS along with Hoesch at 2 ug/ml. Solution was added to the gels and incubated for 1 hour at 37° C. Gels were then washed and imaged on a Nikon Eclipse Ti Confocal microscope.
as §2, §3

Entries after “also recorded” stand apart in the source; their conditions may differ.

Turning to “GCGYGRGDSPG [thiolated peptide motif derived from multiple ECM proteins, clicked to channel walls or in the bulk photoink]”, in assay [1], the “Cell spreading and vessel coverage over time” value is “exhibited immediate spreading on PEG-norbornene and progressed linearly overtime; also recorded: increased cell spreading”. The “Endothelial coverage of the branched (bifurcation) topology” value in assay [1] (bifurcation vessel, endothelial cells only, before seeding astrocytes) is given as “full channel coverage was possible”. For the same sequence, the “ZO-1 localization in response to flow” value in assay [2] (network topology designed to induce flow separation, fully developed versus disturbed flow) is “no significant difference in ZO-1 localization in response to fully developed and disturbed flow”. In addition, the “ZO-1 staining localization to cell-cell junctions (images)” value (from here on “ZO-1 staining localization”) in assay [2] is given as “the ZO-1 was the most diffuse in this condition; also recorded: did not result in the highest ZO-1 localization to cell-cell junctions”.

As to “GCGGGIKVAVG [thiolated laminin derived motif, covalently clicked to channel walls]”, in assay [1], the “Cell spreading and vessel coverage over time” value is “exhibited no noticeable difference in vessel coverage throughout the 5-day static culture”; the “Percent cell coverage within the vessel versus control / other motifs” value is “significantly improve endothelialization compared to other motifs; also recorded: significantly higher coverage than the control condition”; the “Microenvironment for vessel coverage and development of barrier function” value was “provide the most favorable microenvironment for both vessel coverage and development of barrier function”. Also, in assay [2], the “ZO-1 staining localization” value was “increase zonula occulends-1 (“ZO-1”) localization to cell-cell junctions; also recorded: exhibited more ZO-1 localization to the cell-cell junctions”; the “Root mean square ZO-1 intensity quantification (barrier formation)” value is “significantly higher barrier formation than the RGD and control-lined channels”.

In the case of HAVDIGGGC, in assay [1], the “Cell spreading and vessel coverage over time” value was “over the course of the experiment cells began to spread and cover the walls; also recorded: took several days to spread and cover the vessel wall”; the “Percent cell coverage within the vessel versus control / other motifs” value was “significantly improve endothelialization compared to other motifs; also recorded: significantly higher coverage than the control condition”; the “Microenvironment for vessel coverage and development of barrier function” value is “provide the most favorable microenvironment for both vessel coverage and development of barrier function”. Moreover, in assay [2], the “ZO-1 staining localization” value is on record as “increase zonula occulends-1 (“ZO-1”) localization to cell-cell junctions; also recorded: ZO-1 junctional staining was the clearest; also recorded: induced the highest ZO-1 localization to the cell-cell junctions”; the “Root mean square ZO-1 intensity quantification (barrier formation)” value was “significantly higher barrier formation than the RGD and control-lined channels”.
